In the case of `COc1cccn2c(=O)c(CCN3CCC(c4noc5cc(F)ccc45)CC3)c(C)nc12`, the melting point came out at 209 °C.
Then `CN(C)CC1CCCCN1CC(=O)N1c2ccccc2NC(=O)c2cscc21` (stereo unspecified), with 208 to 209 °C; and `CN(Cc1cccc2c1C(=O)N(C1CCC(=O)NC1=O)C2=O)C(=O)OC(C)(C)C` (stereo unspecified), with 138 to 140 °C.
`Cc1ccccc1NC(=N)NC12CC3CC(CC(C3)C1)C2` had a melting point of 160 to 161 °C.
With `Cc1c(-c2ccc(Cl)cc2)nn(C)c1C(F)(F)F`, the melting point was 87 to 88.5 °C.
The same measure for `O=[N+]([O-])c1cc([N+](=O)[O-])c(N2CCSCC2)c(C(F)(F)F)c1`: 120 to 121 °C.
In turn, `CCNc1cccnc1N1CCN(C(=O)c2ccc(C(=O)O)cc2)CC1` yielded a melting point of 208 to 209 °C.
Then `COc1ccc(S(=O)(=O)C2(C(=O)NO)CCN(C)CC2)cc1`, with 89 °C.
`COc1ccc(-c2nc(Sc3ccncc3)[nH]c2-c2ccc(OC)cc2)cc1` displayed a melting point of 177 to 179 °C.
Compound `Nc1ccc2sc3ccc(F)cc3c2c1` returned a melting point of 131 to 132 °C.
With `CCCCc1nc(C(C)(O)CC)c(C(=O)O)n1Cc1ccc(-c2ccccc2-c2nnn[nH]2)cc1` (stereo unspecified), the melting point lay in the range of 152 to 154 °C.
The same measure for `CCCCNC(=O)Nc1ccccc1C(=O)OC`: 84 to 85 °C; for `CCOC(=O)CNc1ncccc1NC(=O)c1ccccc1`: 115 to 116 °C; for `CC1Oc2ccc(CN3CCN(c4ccc(C(=O)O)cn4)CC3)cc2NC1=O` (stereo unspecified): 243 to 248 °C.
Consider `O=c1cnc2cc(Cl)cc(Cl)c2[nH]1`, for which the melting point lay within 228 to 229 °C.
`Cc1cccc(C(=O)NO)c1N(C)S(=O)(=O)c1ccc(OCCCCNC(=O)c2cc3ccccc3o2)cc1` yielded a melting point of 131 to 134 °C.
As for `Cc1nc(-c2ccc(C(=O)N(C)c3ccc(Cl)cc3)cc2)sc1C(=O)O`, the melting point lay in the range of 210 to 212 °C.
Then `COc1ccc(Cl)c(CBr)c1`, with 51 to 52 °C.
Then `Cc1oc(-c2ccccc2)nc1COc1ccc(C(C)CCC2SC(=O)NC2=O)cc1` (stereo unspecified), with 64 to 65 °C; and `Fc1ccc(-c2nc(CI)co2)cc1`, with 100 to 102 °C.
In the case of `COc1ccc2nc(-n3nc(CCCO)cc3-c3ccc(Cl)cc3)sc2c1`, the melting point fell in the range of 123 to 125 °C.
For `Cc1c(C)c2c(c(C)c1O)C(=O)CC(CCC(C)CCCC(C)C)(COc1ccc([N+](=O)[O-])cc1)O2` (stereo unspecified), the melting point is 121 to 123 °C.
The same measure for `Cc1ncccc1C(=O)NCC1CCN(C[C@H]2COc3cccc(Cl)c3O2)CC1`: 147 to 149 °C.
Then `CC(=O)OC1CCC2(C)C(CCC3C2CCC2(C)C(N)C(O)CC32)C1` (stereo unspecified), with 192 to 193 °C; and `N#CCc1ccc(N)c2[nH]ncc12`, with 164 to 165 °C; and `CCn1nc(C(C)C)c2c1C(=O)NCC(c1ccc(O)cc1)=N2`, with 230 °C.
In the case of `CC(C)Oc1ccc(-n2c(C(=O)NCC(=O)O)c(Cl)c3cc(Oc4ccc(C(F)(F)F)cc4)ccc32)cc1`, the melting point is 94 to 96 °C.
As for `CC1CCCN1CCN1C=c2ccc(=c3ccc4c(c3)CCN(C)C=4)cc2CC1` (stereo unspecified), the melting point is greater than 270 °C.
Compound `COc1ccc([N+](=O)[O-])c(Nc2ccccc2O)n1` showed a melting point of 206 to 207 °C.
Then `CN(c1cccc2cc(-c3ncc(CN4CCS(=O)(=O)CC4)s3)[nH]c12)S(=O)(=O)c1cccs1`, with 225 to 226 °C; and `CCc1nc(O)c(I)c(Cl)n1`, with greater than 230 °C; and `Cc1onc(-c2ccccc2)c1-c1ccc(S(=O)(=O)NCC(=O)O)cc1`, with 242 to 248 °C.
Then `CCOc1nn(Cc2ccc(OCCc3ccc(CC)cn3)cc2)cc1CCC(=O)O`, with 89 to 90 °C; and `CS(=O)(=O)c1cccc(-n2c(=O)c(CCCc3ccncc3)cc3cccnc32)c1`, with 127 to 131 °C.
For `COc1ccc(C(=O)CCCCCBr)cc1OC`, the melting point is 38 to 40 °C.
In turn, `Cc1cc(C)c(-c2cc(O)c(SCc3ccccc3)c(=O)o2)c(C)c1` displayed a melting point of 134 to 136 °C.
`CCCCCCCC1=CC(=O)N(Cc2ccccc2)C1=CBr` gave a melting point of 52 to 55 °C.
The compound `CNc1ccccc1C(O)c1ccccc1` (stereo unspecified) gave a melting point of 124 to 126 °C.
In the case of `COc1ccc2c(Br)c(C)sc2c1`, the melting point lay in the range of 80 to 81 °C.
`N#Cc1ncn2c1[C@@H]1CCCN1C(=O)c1c(Cl)cccc1-2`: the melting point lay within 237 to 238 °C.
As for `O=C(O)C1=CCCCC1C(=O)O` (stereo unspecified), the melting point lay in the range of 201 to 203 °C.
Then `CCCC(SCC(N)=O)c1ccc2c(c1)OCO2` (stereo unspecified), with 91 to 92 °C; and `Cc1csc2nc(N3CCC(C(=O)O)CC3)nc(NCc3ccc(F)cc3)c12`, with 279 °C.
In turn, `CC(C)(C)NS(=O)(=O)c1cccc(NC(=O)c2cnn3c(C(F)(F)F)cc(-c4ccc(C(F)(F)F)cc4)nc23)c1` showed a melting point of 232 °C.
Compound `CC1(c2ccccc2)OC(C=Cc2ccsc2)=CC1=O` (stereo unspecified) came in with a melting point of 75 to 77 °C.
In turn, `NNC(=O)c1cccc(OCc2csc(-c3ccccc3F)n2)c1` came in with a melting point of 143 to 145 °C.
For the compound `NC(=O)NCc1ccc2c(c1)CN(C1CCC(=O)NC1=O)C2=O` (stereo unspecified), the melting point was in the range of 224 to 226 °C.
The same measure for `O=C(O)CN1CCC(=C2c3ccccc3COc3ccccc32)CC1`: 132 to 135 °C; for `O=C(O)c1ccccc1N1CCN(CC(O)COc2ccccc2)CC1` (stereo unspecified): 235 to 237 °C; for `NC1=NN(c2cccc(F)c2)C(c2ccccc2)C1` (stereo unspecified): 165 to 166 °C.
With `CC1(C)C2CC3=C(CCC(=O)O3)C1C2` (stereo unspecified), the melting point worked out at 60 °C.
For the compound `COc1ccc(-c2sc3ccccc3c2C(=O)c2ccc(OCCN3CCCCC3)cc2)cc1`, the melting point was in the range of 41 to 44 °C.
`Cc1ccc([N+](=O)[O-])cc1C(=O)N(C)C` displayed a melting point of 98 to 99 °C.
In turn, `CCOC(=O)c1cn(-c2ccccc2)c2ccc(CN3CCOCC3)cc2c1=O` had a melting point of 159 to 161 °C.
For `CC(=O)Nc1cccc(-c2nc3ncccc3o2)c1`, the melting point worked out at 202 °C.
`CCCC1=C(C#N)C(c2ccccc2Cl)c2c(n[nH]c2-c2cccc3ccccc23)N1` (stereo unspecified): the melting point was found to be 254 °C.
For `Cn1c(C(F)(F)F)cc(=O)n(-c2cc(OCC3CO3)c(Cl)cc2F)c1=O` (stereo unspecified), the melting point fell in the range of 93 to 96 °C.
In the case of `OC1CSC(Oc2cc(-c3ccnc(F)c3)cc(F)c2F)C(O)C1O` (stereo unspecified), the melting point is 184 °C.
Then `Cc1c(-c2ccnc3cc(Cl)ccc23)c2cc(NS(C)(=O)=O)ccc2n1CC(=O)O`, with 195 to 198 °C; and `NS(=O)(=O)c1cc(C(=O)CCCCCl)cc2c1CCC2`, with 117 to 119 °C.
Compound `CCCC(CCC)C(=O)NC(=O)CN` came in with a melting point of 127 °C.
Then `CCOC(=O)C(=O)N(c1ccccc1)c1ccc(OC)cc1OC`, with 142 to 144 °C; and `CC(Br)C(=O)N1C(=O)c2ccccc2OC12CCCCC2` (stereo unspecified), with 74 to 76 °C.
As for `CC(=O)NC1C(NC(=N)N)C=C(C(=O)O)OC1C(OC(=O)NCCCO)C(O)CO` (stereo unspecified), the melting point lay within 265 to 267 °C.
As for `CN(C)C1Cc2cccc3ccn(c23)C1` (stereo unspecified), the melting point lay within 114 to 115 °C.
The compound `NC(=O)c1ccnc(Cl)n1` yielded a melting point of 152 to 154 °C.

As a reminder, the melting point is the temperature of the solid-liquid transition.

These data come from a melting point compilation (Tetko et al.; mined from patent text by program, amines drawn as free bases though some values may be those of a salt).
